According to ChEMBL document CHEMBL1201862, “PubChem BioAssay data set” (2004):
Calls of active or inactive are those of the source.

How the values were obtained:
HeLa = assay: HeLa cell cytotoxicity, dose response, cytotoxicity control for MITF activator project, CellTiter-Glo luminescence, cherry-pick samples (AID 540259); type: functional, cell-based; details: Homo sapiens
Escherichia coli = assay: microbe, parasite or virus in culture
CAAX prenyl protease 2 [1] = target: T1, CAAX prenyl protease 2 (Homo sapiens, UniProt Q9Y256); assay: human Rce1 protease inhibitors, dose response, biochemical, yeast membranes, quenched-peptide fluorescence, cherry-pick (AID 588849)
T1 sequence (Q9Y256 whole entry): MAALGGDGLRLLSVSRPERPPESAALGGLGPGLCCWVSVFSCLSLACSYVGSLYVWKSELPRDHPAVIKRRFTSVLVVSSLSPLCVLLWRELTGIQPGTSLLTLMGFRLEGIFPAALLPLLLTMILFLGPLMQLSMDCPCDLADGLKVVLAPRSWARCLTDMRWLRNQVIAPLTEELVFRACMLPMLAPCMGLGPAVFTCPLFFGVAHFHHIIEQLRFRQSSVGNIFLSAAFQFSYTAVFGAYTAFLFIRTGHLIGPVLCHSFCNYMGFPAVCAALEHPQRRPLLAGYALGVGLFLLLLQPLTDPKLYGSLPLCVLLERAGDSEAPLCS

[2] = M. tuberculosis H37Rv growth inhibitors, H37Rv strain (AID 1626); type: functional
CAAX prenyl protease 2 [3] = target: T2, CAAX prenyl protease 2 (Saccharomyces cerevisiae S288c, UniProt Q03530); type: biochemical
T2 sequence (Q03530 whole entry): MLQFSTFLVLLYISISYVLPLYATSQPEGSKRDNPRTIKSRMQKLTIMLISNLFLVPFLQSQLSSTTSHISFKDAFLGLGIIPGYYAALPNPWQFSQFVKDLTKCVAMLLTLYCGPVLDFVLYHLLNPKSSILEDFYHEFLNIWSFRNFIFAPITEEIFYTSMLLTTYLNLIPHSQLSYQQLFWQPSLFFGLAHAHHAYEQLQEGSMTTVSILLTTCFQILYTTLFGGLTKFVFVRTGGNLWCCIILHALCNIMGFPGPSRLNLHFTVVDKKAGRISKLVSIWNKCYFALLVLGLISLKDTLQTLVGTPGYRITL

Mu-type opioid receptor = Mu-type opioid receptor (Homo sapiens, UniProt P35372); assay: (§1) Counterscreen for agonists of heterodimerization of the mu 1 (OPRM1) and delta 1 (OPRD1) opioid receptors: Luminescence-based cell-based high throughput dose response assay to identify agonists of OPRM1 homodimerization.; type: functional
Chain of Mu-type opioid receptor (P35372 whole entry): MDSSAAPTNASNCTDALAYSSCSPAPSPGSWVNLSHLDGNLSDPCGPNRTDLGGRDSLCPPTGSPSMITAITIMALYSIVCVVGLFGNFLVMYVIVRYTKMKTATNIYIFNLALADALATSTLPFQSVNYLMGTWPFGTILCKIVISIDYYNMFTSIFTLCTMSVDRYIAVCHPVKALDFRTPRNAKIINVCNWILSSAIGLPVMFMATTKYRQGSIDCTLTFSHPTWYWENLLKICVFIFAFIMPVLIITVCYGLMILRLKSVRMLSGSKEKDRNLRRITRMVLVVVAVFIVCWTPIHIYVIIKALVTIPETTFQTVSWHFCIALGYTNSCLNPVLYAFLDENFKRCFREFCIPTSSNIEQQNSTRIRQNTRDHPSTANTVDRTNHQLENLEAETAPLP

[4] = target: Delta-type opioid receptor (Homo sapiens, UniProt P41143); assay: as §1, with “of OPRD1” for “of OPRM1”, “homodimerization. [Related pubchem assays (depositor defined):AID504326, AID504355, AID504692, AID504904, AID504905]” for “homodimerization.”; type: functional
Chain of Delta-type opioid receptor (P41143 whole entry): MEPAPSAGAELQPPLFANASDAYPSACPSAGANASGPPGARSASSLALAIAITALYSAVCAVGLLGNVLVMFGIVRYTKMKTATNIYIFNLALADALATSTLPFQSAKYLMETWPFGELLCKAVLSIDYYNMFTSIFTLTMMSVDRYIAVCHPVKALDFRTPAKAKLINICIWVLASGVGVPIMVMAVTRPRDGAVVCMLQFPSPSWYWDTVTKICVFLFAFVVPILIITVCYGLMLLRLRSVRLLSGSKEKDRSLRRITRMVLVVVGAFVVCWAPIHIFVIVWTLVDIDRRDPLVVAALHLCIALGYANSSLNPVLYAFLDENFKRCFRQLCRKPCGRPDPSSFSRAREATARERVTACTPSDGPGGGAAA

[5] = target: 5-hydroxytryptamine receptor 5A (Homo sapiens, UniProt P47898); assay: Counterscreen for agonists of OPRM1-OPRD1 heterodimerization: luminescence-based cell-based high throughput dose response assay to identify agonists of 5-hydroxytryptamine (serotonin) 5A receptor (HTR5A). [Related pubchem assays (depositor defined):AID504326, AID504355, AID504692, AID504904, AID504905]; type: functional
Chain of 5-hydroxytryptamine receptor 5A (P47898 whole entry): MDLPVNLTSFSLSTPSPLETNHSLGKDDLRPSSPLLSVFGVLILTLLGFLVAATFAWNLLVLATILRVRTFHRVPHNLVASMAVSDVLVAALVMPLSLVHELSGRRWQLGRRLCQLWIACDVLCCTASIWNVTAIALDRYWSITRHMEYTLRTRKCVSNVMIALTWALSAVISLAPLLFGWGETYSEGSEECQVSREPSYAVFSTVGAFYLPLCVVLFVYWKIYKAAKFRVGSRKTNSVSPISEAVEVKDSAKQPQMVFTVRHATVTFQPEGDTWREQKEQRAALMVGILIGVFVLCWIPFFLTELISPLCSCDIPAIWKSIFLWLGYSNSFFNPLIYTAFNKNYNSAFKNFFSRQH

[6] = target: T3, Tyrosine-protein phosphatase non-receptor type 7 (Homo sapiens, UniProt P35236); assay: HePTP (PTPN7) phosphatase inhibitor potency, SAR follow-up, biochemical, set 2 (AID 449736); type: functional
T3 sequence (P35236 whole entry): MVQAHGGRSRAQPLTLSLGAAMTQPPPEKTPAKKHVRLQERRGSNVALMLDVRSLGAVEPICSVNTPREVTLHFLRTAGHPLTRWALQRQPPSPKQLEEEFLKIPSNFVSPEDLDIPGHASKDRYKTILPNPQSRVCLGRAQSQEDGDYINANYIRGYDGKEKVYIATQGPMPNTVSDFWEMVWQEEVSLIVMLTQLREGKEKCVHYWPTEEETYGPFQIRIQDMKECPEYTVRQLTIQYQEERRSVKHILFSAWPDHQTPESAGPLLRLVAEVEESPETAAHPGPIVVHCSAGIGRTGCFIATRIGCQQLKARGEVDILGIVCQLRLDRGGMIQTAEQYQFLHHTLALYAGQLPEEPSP

[7] = target: T4, Tyrosine-protein phosphatase non-receptor type 22 (Homo sapiens, UniProt Q9Y2R2); assay: SAR LYP1 Fluorescent Assay using OMFP substrate for In Vitro dose response studies - Set 3. [Related pubchem assays (depositor defined):AID1779, AID1784, AID2140, AID2686]; type: functional
T4 sequence (Q9Y2R2 whole entry): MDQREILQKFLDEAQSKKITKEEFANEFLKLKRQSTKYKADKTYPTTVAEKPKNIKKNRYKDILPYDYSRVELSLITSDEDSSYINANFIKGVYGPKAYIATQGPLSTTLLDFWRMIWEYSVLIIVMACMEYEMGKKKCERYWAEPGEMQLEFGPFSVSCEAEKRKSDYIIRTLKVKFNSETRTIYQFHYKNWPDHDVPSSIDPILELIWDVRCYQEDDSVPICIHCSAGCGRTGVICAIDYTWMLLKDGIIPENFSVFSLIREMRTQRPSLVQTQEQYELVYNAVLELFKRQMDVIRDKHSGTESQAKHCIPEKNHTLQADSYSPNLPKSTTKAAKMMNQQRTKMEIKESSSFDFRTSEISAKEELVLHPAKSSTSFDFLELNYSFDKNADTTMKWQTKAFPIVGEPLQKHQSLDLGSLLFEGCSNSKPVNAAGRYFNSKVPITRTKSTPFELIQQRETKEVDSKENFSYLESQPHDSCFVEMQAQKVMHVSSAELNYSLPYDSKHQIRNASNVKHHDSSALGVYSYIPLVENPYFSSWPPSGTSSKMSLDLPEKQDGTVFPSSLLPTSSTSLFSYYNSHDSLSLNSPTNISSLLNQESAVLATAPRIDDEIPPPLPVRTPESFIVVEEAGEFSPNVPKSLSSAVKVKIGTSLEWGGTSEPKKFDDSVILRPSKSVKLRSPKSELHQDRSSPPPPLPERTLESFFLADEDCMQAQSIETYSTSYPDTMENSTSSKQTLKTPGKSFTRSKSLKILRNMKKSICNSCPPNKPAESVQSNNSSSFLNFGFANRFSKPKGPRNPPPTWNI

[8] = target: T4, Tyrosine-protein phosphatase non-receptor type 22; assay: LYP (PTPN22) phosphatase inhibitor potency, SAR follow-up, biochemical, pCAP fluorogenic substrate, fluorescence, set 3 (AID 449727); type: functional
[9] = target: T5, Tyrosine-protein phosphatase non-receptor type 12 (Homo sapiens, UniProt Q05209); assay: SAR Selectivity Analysis of small molecule inhibitors of PEST using pCAP in a fluorescence assay. [Related pubchem assays (depositor defined):AID1779, AID1784, AID2135]; type: functional
T5 sequence (Q05209 whole entry): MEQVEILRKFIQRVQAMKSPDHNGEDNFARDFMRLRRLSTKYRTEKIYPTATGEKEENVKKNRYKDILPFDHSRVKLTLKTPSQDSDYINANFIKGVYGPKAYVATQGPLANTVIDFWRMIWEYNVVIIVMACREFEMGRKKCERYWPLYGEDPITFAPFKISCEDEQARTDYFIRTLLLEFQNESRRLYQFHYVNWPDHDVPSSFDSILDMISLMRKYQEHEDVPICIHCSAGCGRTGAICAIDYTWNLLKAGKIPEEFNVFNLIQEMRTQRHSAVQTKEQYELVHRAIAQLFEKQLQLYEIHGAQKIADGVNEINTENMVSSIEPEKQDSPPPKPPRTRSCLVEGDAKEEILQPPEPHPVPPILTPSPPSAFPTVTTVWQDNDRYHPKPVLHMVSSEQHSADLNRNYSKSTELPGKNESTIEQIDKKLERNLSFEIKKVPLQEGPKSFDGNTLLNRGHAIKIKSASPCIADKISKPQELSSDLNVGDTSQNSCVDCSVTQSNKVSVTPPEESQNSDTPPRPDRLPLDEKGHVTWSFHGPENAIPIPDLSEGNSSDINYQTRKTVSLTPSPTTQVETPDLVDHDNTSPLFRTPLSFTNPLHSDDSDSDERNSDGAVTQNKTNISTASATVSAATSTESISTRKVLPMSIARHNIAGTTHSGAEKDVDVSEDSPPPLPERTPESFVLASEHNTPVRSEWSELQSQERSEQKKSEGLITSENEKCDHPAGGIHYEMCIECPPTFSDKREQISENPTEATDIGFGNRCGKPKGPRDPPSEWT

[10] = target: T4, Tyrosine-protein phosphatase non-receptor type 22; assay: SAR LYP1 Fluorescent Assay using OMFP substrate for In Vitro dose response studies - Set 2. [Related pubchem assays (depositor defined):AID1779, AID1784, AID2140, AID449726, AID488869]; type: functional
[11] = target: T4, Tyrosine-protein phosphatase non-receptor type 22; assay: SAR LYP1 Fluorescent Assay using pCAP substrate for In Vitro dose response studies - Set 2. [Related pubchem assays (depositor defined):AID1779, AID1784, AID2135, AID449727]; type: functional
[12] = target: T6, Short transient receptor potential channel 4 (Mus musculus, UniProt Q9QUQ5); assay: mouse TRPC4 channel activators, dose response, cell-based, HEK293 TRPC4/mu-opioid, Fluo-4 calcium (AID 434937); type: functional
T6 sequence (Q9QUQ5 whole entry): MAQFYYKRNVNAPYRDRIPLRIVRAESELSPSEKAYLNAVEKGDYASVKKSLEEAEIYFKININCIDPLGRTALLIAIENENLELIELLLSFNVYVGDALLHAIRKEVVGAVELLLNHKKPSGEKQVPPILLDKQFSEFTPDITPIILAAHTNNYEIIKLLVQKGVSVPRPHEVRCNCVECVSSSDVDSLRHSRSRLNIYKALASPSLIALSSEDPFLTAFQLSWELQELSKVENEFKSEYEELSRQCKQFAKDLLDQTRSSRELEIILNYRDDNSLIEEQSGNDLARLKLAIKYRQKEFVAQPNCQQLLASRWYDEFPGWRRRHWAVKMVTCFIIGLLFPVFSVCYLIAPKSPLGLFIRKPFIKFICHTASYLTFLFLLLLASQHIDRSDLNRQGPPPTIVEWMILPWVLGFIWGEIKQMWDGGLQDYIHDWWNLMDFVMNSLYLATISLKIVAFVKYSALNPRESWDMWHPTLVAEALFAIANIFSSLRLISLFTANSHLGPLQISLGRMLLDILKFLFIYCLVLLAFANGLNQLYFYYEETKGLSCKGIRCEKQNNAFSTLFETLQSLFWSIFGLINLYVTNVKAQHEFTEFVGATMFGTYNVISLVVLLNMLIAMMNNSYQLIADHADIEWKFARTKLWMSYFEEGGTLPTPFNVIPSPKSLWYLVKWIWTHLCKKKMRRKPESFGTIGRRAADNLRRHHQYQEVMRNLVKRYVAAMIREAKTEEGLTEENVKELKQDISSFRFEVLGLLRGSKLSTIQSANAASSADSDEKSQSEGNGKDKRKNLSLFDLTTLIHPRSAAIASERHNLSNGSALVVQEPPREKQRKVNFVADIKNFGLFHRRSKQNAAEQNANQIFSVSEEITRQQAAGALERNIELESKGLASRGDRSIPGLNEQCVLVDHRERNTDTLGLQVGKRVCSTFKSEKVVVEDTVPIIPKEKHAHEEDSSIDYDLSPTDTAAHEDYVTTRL

[13] = target: Voltage-gated inwardly rectifying potassium channel KCNH2 (Homo sapiens, UniProt Q12809); details: Potency;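 also: confirmatory quantitative high-throughput screen measuring inhibition of hERG channel activity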
Chain of Voltage-gated inwardly rectifying potassium channel KCNH2 (Q12809 whole entry): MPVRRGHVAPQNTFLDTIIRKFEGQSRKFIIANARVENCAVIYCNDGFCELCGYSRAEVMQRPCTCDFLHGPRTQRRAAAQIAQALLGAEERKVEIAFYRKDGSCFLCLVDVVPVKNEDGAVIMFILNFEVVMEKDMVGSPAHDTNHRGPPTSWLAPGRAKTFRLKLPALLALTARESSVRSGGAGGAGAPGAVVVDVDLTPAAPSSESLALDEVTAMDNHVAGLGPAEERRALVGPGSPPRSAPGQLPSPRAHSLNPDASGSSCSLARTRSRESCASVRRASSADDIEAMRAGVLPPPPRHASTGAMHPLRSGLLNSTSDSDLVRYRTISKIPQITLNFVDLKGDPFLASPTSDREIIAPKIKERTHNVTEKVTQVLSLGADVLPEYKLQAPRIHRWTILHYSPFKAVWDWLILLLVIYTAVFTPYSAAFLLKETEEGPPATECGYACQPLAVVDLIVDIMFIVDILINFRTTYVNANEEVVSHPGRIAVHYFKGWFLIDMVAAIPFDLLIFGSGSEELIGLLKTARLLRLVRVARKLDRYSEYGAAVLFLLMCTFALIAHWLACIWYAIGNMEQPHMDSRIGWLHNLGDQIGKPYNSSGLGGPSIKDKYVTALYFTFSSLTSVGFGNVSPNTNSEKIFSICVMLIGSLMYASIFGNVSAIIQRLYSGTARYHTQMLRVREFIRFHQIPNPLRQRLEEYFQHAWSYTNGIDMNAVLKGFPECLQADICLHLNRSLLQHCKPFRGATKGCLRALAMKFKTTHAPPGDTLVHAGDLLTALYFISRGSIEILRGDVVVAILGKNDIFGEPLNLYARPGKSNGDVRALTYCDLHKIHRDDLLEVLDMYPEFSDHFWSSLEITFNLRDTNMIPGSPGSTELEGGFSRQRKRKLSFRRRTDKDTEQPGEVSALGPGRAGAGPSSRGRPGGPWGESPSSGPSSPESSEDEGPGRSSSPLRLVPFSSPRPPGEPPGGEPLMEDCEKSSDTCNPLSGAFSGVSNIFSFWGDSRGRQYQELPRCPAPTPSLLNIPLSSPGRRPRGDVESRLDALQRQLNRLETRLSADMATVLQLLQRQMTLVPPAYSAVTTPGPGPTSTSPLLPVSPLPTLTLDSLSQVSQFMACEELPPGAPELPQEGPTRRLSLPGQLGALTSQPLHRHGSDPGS

## Cc1nnc2sc(-c3ccc(N(C)C)cc3)nn2c1=O
HeLa
  AC50: 55.2 µM (active)

## O=C(CSc1nccn1Cc1ccccc1)NC1CCCC1
Escherichia coli
  AC50: 25.5 µM (active)

## c1ccc(-n2ncc3c(NCc4cccs4)ncnc32)cc1
HeLa
  AC50: 55.5 µM (active)

## Fc1cccc(-c2cc3nc(-c4ccccc4)cc(N4CCC5(CC4)OCCO5)n3n2)c1
CAAX prenyl protease 2 [1]
  AC50: 1.35 µM (active)
[2]
  IC50: > 100 µM (active)

## COc1ccc2cc(CCNC(=O)c3cccs3)c(O)nc2c1
HeLa
  AC50: 51 µM (active)

## CC(=O)OC1CCC2(C)C(COc3ccc4ccc(=O)oc4c3)C(C)(O)CCC2C1(C)C (stereo not drawn)
CAAX prenyl protease 2 [3]
  AC50: 18.1 µM (active)
CAAX prenyl protease 2 [1]
  AC50: 87.2 µM (active)

## Cc1cccnc1NC(=O)c1cccc(S(=O)(=O)N2CCCc3ccccc32)c1
Escherichia coli
  AC50: 23.6 µM (active)

## C#CC(C)(CC)NC(=O)c1cc2cccc(CC=C)c2oc1=O (stereo not drawn)
Escherichia coli
  AC50: 23.8 µM (active)

## O=C(CC1(O)C(=O)N(C/C=C/c2ccccc2)c2ccccc21)c1ccccn1 (stereo not drawn)
CAAX prenyl protease 2 [3]
  AC50: 26.3 µM (active)
CAAX prenyl protease 2 [1]
  AC50: 59.1 µM (active)

## CCN1CCN(S(=O)(=O)c2ccc(Cl)c(C(=O)N(CCc3ccccc3)Cc3ccccc3)c2)CC1
Mu-type opioid receptor
  EC50: > 92.5 µM (inactive)
[4]
  EC50: > 92.5 µM (inactive)
[5]
  EC50: > 92.5 µM (inactive)

## COc1cc(/C=C2/SC(=S)N(c3cccc(C(=O)O)c3)C2=O)ccc1OCc1ccc(Cl)cc1
[6]
  IC50: 0.394 µM (active)
[7]
  IC50: 3.06 µM (active)
[8]
  IC50: 3.49 µM (active)
[9]
  IC50: 0.953 µM (active)
[10]
  IC50: 4.04 µM (active)
[11]
  IC50: 3.68 µM (active)

## COc1cc(/C=C2/SC(=S)N(c3cccc(C(=O)O)c3)C2=O)cc(Cl)c1OCc1cccc(C(=O)O)c1
[6]
  IC50: 3.81 µM (active)
[7]
  IC50: 62.8 µM (active)
[8]
  IC50: 20.4 µM (active)
[9]
  IC50: 2.81 µM (active)
[10]
  IC50: 14.6 µM (active)
[11]
  IC50: 12.2 µM (active)

## COc1ccc(C(CNC(=O)c2ccc3c(c2)CCC3)N(C)C)cc1 (stereo not drawn)
[12]
  EC50: 0.0053 µM (active)
Mu-type opioid receptor
  EC50: 0.503 µM (active)
[4]
  EC50: 7.36 µM (active)
[5]
  EC50: > 92.5 µM (inactive)

## CCOc1ccc(/C=N/NC(=O)c2ccc(-c3csc(Nc4ccc(C)cc4)n3)cc2)cc1OCC
[6]
  IC50: 60.8 µM (active)
[7]
  IC50: > 100 µM (inactive)
[8]
  IC50: > 100 µM (inactive)
[9]
  IC50: > 100 µM (inactive)
[10]
  IC50: 95.3 µM (active)
[11]
  IC50: > 100 µM (inactive)

## Nc1ccc(Cc2ccc(N)c(Cl)c2)cc1Cl
[13]
  AC50: 79.4 µM (inconclusive)
